Measurements as given in patent EP0255100A2, “Use of trimetrexate and its salts for the preparation of pharmaceutical compositions for treating infections of the mycobacterium-avium-intracellulare complex” (WARNER-LAMBERT COMPANY, priority 1986, dated 1988).
In brackets after ≈: the same amount, converted by molar mass. Read-outs that look alike come from different tables or passages of the source.

Legend:
[1] = system: Mycobacterium avium-intracellulare complex; assay: minimal inhibitory concentration by the standard T100 growth inhibition method; type: cell-based
Protocol: The activity of trimetrexate at several concentrations ranging from 2 to 64 micrograms/ml was tested against fifteen strains of Mycobacterium avium-intracellulare isolated from AIDS patients who were also suffering from infections of the MAI complex. Drug activity was measured using both a radiometric assay and growth inhibition analysis by the T100 method. (S.H. Siddiqi et al., J. Clin. Microbiol., 22: 919-923 (1985); S.H. Siddiqi et al., J. Clin. Microbiol., 13: 908-912 (1981); and D.E. Snyder et al., Am. Rev. Respir. Dis., 123: 402-406 (1981).
In a second test, the minimal inhibitory concentration (MIC) required to inhibit 99% and 99.9% growth of the test strains of the Mycobacterium avium-intracellulare complex was determined employing the standard T100 method. The results appear in Table II where the MIC value is given for each of the tested MAI complex strains.

[2] = system: Mycobacterium avium-intracellulare complex; assay: radiometric assay (14CO2 release from 14C palmitic acid in 7H12 medium, BACTEC 460), percent microorganism killed; type: cell-based; settings: for killing at 16 µg/mL: Mycobacterium avium-intracellulare, 168 h, read-out: Percent Microorganism Killed One Week Post
[3] = MAI Complex Strain 109, trimetrexate 16 µg/ml

- MIC ([1]; MAI Complex Strain 100, 99% growth inhibition, read-out: Approximate Minimal Inhibitory Concentration (MIC) 99%): 2 µg/mL (≈ 5.41 µM)
- MIC ([1]; MAI Complex Strain 100, 99.9% growth inhibition, read-out: Approximate Minimal Inhibitory Concentration (MIC) 99.9%): 2 µg/mL (≈ 5.41 µM)
- MIC ([1]; MAI Complex Strain 101, 99% growth inhibition, read-out: Approximate Minimal Inhibitory Concentration (MIC) 99%): 4 µg/mL (≈ 10.8 µM)
- MIC ([1]; MAI Complex Strain 101, 99.9% growth inhibition, read-out: Approximate Minimal Inhibitory Concentration (MIC) 99.9%): 4 µg/mL (≈ 10.8 µM)
- MIC ([1]; MAI Complex Strain 102, 99% growth inhibition, read-out: Approximate Minimal Inhibitory Concentration (MIC) 99%): 8 µg/mL (≈ 21.7 µM)
- MIC ([1]; MAI Complex Strain 102, 99.9% growth inhibition, read-out: Approximate Minimal Inhibitory Concentration (MIC) 99.9%): 8 µg/mL (≈ 21.7 µM)
- MIC ([1]; MAI Complex Strain 103, 99% growth inhibition, read-out: Approximate Minimal Inhibitory Concentration (MIC) 99%): 2 µg/mL (≈ 5.41 µM)
- MIC ([1]; MAI Complex Strain 103, 99.9% growth inhibition, read-out: Approximate Minimal Inhibitory Concentration (MIC) 99.9%): 2 µg/mL (≈ 5.41 µM)
- MIC ([1]; MAI Complex Strain 104, 99% growth inhibition, read-out: Approximate Minimal Inhibitory Concentration (MIC) 99%): 2 µg/mL (≈ 5.41 µM)
- MIC ([1]; MAI Complex Strain 104, 99.9% growth inhibition, read-out: Approximate Minimal Inhibitory Concentration (MIC) 99.9%): 2 µg/mL (≈ 5.41 µM)
- MIC ([1]; MAI Complex Strain 105, 99% growth inhibition, read-out: Approximate Minimal Inhibitory Concentration (MIC) 99%): 2 µg/mL (≈ 5.41 µM)
- MIC ([1]; MAI Complex Strain 105, 99.9% growth inhibition, read-out: Approximate Minimal Inhibitory Concentration (MIC) 99.9%): 2 µg/mL (≈ 5.41 µM)
- MIC ([1]; MAI Complex Strain 107, 99% growth inhibition, read-out: Approximate Minimal Inhibitory Concentration (MIC) 99%): 2 µg/mL (≈ 5.41 µM)
- MIC ([1]; MAI Complex Strain 107, 99.9% growth inhibition, read-out: Approximate Minimal Inhibitory Concentration (MIC) 99.9%): 2 µg/mL (≈ 5.41 µM)
- MIC ([1]; MAI Complex Strain 108, 99% growth inhibition, read-out: Approximate Minimal Inhibitory Concentration (MIC) 99%): 2 µg/mL (≈ 5.41 µM)
- MIC ([1]; MAI Complex Strain 108, 99.9% growth inhibition, read-out: Approximate Minimal Inhibitory Concentration (MIC) 99.9%): 2 µg/mL (≈ 5.41 µM)
- MIC ([1]; MAI Complex Strain 109, 99% growth inhibition, read-out: Approximate Minimal Inhibitory Concentration (MIC) 99%): 2 µg/mL (≈ 5.41 µM)
- MIC ([1]; MAI Complex Strain 109, 99.9% growth inhibition, read-out: Approximate Minimal Inhibitory Concentration (MIC) 99.9%): 2 µg/mL (≈ 5.41 µM)
- MIC ([1]; MAI Complex Strain 110, 99% growth inhibition, read-out: Approximate Minimal Inhibitory Concentration (MIC) 99%): 2 µg/mL (≈ 5.41 µM)
- MIC ([1]; MAI Complex Strain 110, 99.9% growth inhibition, read-out: Approximate Minimal Inhibitory Concentration (MIC) 99.9%): 2 µg/mL (≈ 5.41 µM)
- MIC ([1]; MAI Complex Strain 111, 99% growth inhibition, read-out: Approximate Minimal Inhibitory Concentration (MIC) 99%): 2 µg/mL (≈ 5.41 µM)
- MIC ([1]; MAI Complex Strain 111, 99.9% growth inhibition, read-out: Approximate Minimal Inhibitory Concentration (MIC) 99.9%): 2 µg/mL (≈ 5.41 µM)
- MIC ([1]; MAI Complex Strain 113, 99% growth inhibition, read-out: Approximate Minimal Inhibitory Concentration (MIC) 99%): 2 µg/mL (≈ 5.41 µM)
- MIC ([1]; MAI Complex Strain 113, 99.9% growth inhibition, read-out: Approximate Minimal Inhibitory Concentration (MIC) 99.9%): 2 µg/mL (≈ 5.41 µM)
- MIC ([1]; MAI Complex Strain 116, 99% growth inhibition, read-out: Approximate Minimal Inhibitory Concentration (MIC) 99%): 2 µg/mL (≈ 5.41 µM)
- MIC ([1]; MAI Complex Strain 116, 99.9% growth inhibition, read-out: Approximate Minimal Inhibitory Concentration (MIC) 99.9%): 2 µg/mL (≈ 5.41 µM)
- MIC ([1]; MAI Complex Strain 117, 99% growth inhibition, read-out: Approximate Minimal Inhibitory Concentration (MIC) 99%): 2 µg/mL (≈ 5.41 µM)
- MIC ([1]; MAI Complex Strain 117, 99.9% growth inhibition, read-out: Approximate Minimal Inhibitory Concentration (MIC) 99.9%): 2 µg/mL (≈ 5.41 µM)
- MIC ([1]; MAI Complex Strain 128, 99% growth inhibition, read-out: Approximate Minimal Inhibitory Concentration (MIC) 99%): 2 µg/mL (≈ 5.41 µM)
- MIC ([1]; MAI Complex Strain 128, 99.9% growth inhibition, read-out: Approximate Minimal Inhibitory Concentration (MIC) 99.9%): 2 µg/mL (≈ 5.41 µM)
- MIC ([1]; every strain of the MAI complex tested (summary of Table II), read-out: concentration exhibiting inhibitory activity): ≤ 8 µg/mL
Compound: COc1cc(NCc2ccc3nc(N)nc(N)c3c2C)cc(OC)c1OC [trimetrexate, 5-methyl-6-{[(3,4,5-trimethoxyphenyl)amino]methyl}-2-4-quinazolinediamine]
- Percent Microorganism Killed One Week Post [2, 3]: 42%
- killing at 16 µg/mL ([2]; MAI Complex Strain 100, trimetrexate 16 µg/ml): 65%
- killing at 16 µg/mL ([2]; MAI Complex Strain 101, trimetrexate 16 µg/ml): 68%
- killing at 16 µg/mL ([2]; MAI Complex Strain 108, trimetrexate 16 µg/ml): 70%
- killing at 16 µg/mL [2, 3]: 42%
- killing at 16 µg/mL ([2]; MAI Complex Strain 116, trimetrexate 16 µg/ml): 91%
- bactericidal activity ([2]; all strains of the MAI complex tested, trimetrexate 16 µg/ml alone): potent bactericidal activity
